The source made the active and inactive calls. The calls are words filed in the database; no cut-off is given here.
Key:
[1] = Growth inhibition of porcine primary hepatocytes after 72 hrs by SRB assay; type: cell-based, Sus scrofa, Hepatocyte; conditions: pig
HepG2 [2] = assay: Growth inhibition of human HepG2 cells after 72 hrs by SRB assay; type: functional; conditions: HepG2, 72 h
HepG2 [3] = assay: Induction of cell cycle arrest in human HepG2 cells assessed as increase in DNA content at G2/M phase at 4.1 uM after 72 hrs by propidium iodide staining-based flow cytometric analysis; type: functional
HepG2 [4] = assay: Induction of cell cycle arrest in human HepG2 cells assessed as increase in sub-G1 peak at 4.1 uM after 72 hrs by propidium iodide staining-based flow cytometric analysis; type: functional
HepG2 [5] = assay: Induction of cell cycle arrest in human HepG2 cells assessed as decrease in DNA content at S phase at 4.1 uM after 72 hrs by propidium iodide staining-based flow cytometric analysis; type: functional

Compound | GI50 at 72 h [1] [µM] | GI50 (HepG2 [2]) [µM] | Activity (HepG2 [3]) | Activity (HepG2 [4]) | Activity (HepG2 [5])
COC(=O)c1sc2cc(-c3cc(OC)cc(OC)c3)cnc2c1N | 25 | 125 |  |  | 
COC(=O)c1sc2cc(-c3ccccc3N)cnc2c1N | > 125 | 21.7 |  |  | 
COC(=O)c1sc2cc(-c3ccsc3)cnc2c1N | 25.2 | > 125 |  |  | 
COC(=O)c1sc2cc(C#Cc3ccc(F)cc3)cnc2c1N | > 125 | > 125 |  |  | 
COC(=O)c1sc2cc(C#Cc3ccccc3)cnc2c1N | 95.7 | > 125 |  |  | 
COC(=O)c1sc2cc(-c3cncc4ccccc34)cnc2c1N | 25.4 | > 125 |  |  | 
COC(=O)c1sc2cc(C#Cc3ccccc3OC)cnc2c1N | 121 | > 125 |  |  | 
COC(=O)c1sc2cc(C#Cc3ccccc3N)cnc2c1N | > 125 | > 125 |  |  | 
COC(=O)c1sc2cc(-c3ccc(C(C)=O)cc3)cnc2c1N | > 125 | > 125 |  |  | 
COC(=O)c1sc2cc(C#Cc3ccc(N(C)C)cc3)cnc2c1N | > 125 | 67.6 |  |  | 
Cc1c2ccncc2c(C)c2c1[nH]c1ccccc12 [ELLIPTECINE] | 3.3 | 2.9 |  |  | 
COC(=O)c1sc2cc(C#Cc3ccc(OC)cc3)cnc2c1N | 76.5 | > 125 |  |  | 
COC(=O)c1sc2cc(-c3cccnc3)cnc2c1N | > 125 | > 125 |  |  | 
COC(=O)c1sc2cc(C#Cc3ccc(N)cc3)cnc2c1N | > 125 | 25.9 |  |  | 
COC(=O)c1sc2cc(C#Cc3cccc(OC)c3)cnc2c1N | > 125 | > 125 |  |  | 
COC(=O)c1sc2cc(-c3ccc(C#N)cc3)cnc2c1N | 96.7 | > 125 |  |  | 
COC(=O)c1sc2cc(C#Cc3ccccc3F)cnc2c1N | > 125 | > 125 |  |  | 

Compound | GI50 at 72 h [1] [µM] | GI50 (HepG2 [2]) [µM] | Activity (HepG2 [3]) | Activity (HepG2 [4]) | Activity (HepG2 [5])
COC(=O)c1sc2cc(-c3ccc(OC)cc3)cnc2c1N | > 125 | > 125 |  |  | 
COC(=O)c1sc2cc(-c3cnc4ccccc4c3)cnc2c1N | 32.5 | > 125 |  |  | 
COC(=O)c1sc2cc(-c3ccc(F)nc3)cnc2c1N | 47 | > 125 |  |  | 
COC(=O)c1sc2cc(C#Cc3cccnc3)cnc2c1N | > 125 | > 125 |  |  | 
COC(=O)c1sc2cc(-c3ccc(OC)nc3)cnc2c1N | > 125 | > 125 |  |  | 
COC(=O)c1sc2cc(-c3cnn(C)c3)cnc2c1N | > 125 | > 125 |  |  | 
COC(=O)c1sc2cc(-c3ccc4ccccc4c3)cnc2c1N | 102 | > 125 |  |  | 
COC(=O)c1sc2cc(-c3ccc4ncccc4c3)cnc2c1N | 14.1 | > 125 |  |  | 
COC(=O)c1sc2cc(C#Cc3ccccn3)cnc2c1N | 56.9 | 75.7 |  |  | 
COC(=O)c1sc2cc(-c3ccc(-c4cccs4)s3)cnc2c1N | 106 | 70.6 |  |  | 
COC(=O)c1sc2cc(-c3ccc4c(ccn4C)c3)cnc2c1N | 106 | 117 |  |  | 
COC(=O)c1sc2cc(C#Cc3cccc(N)c3)cnc2c1N | > 125 | 1.2 | Active | Active | Active
COC(=O)c1sc2cc(-c3cnc(OC)nc3OC)cnc2c1N | 4.4 | 23.8 |  |  | 
COC(=O)c1sc2cc(-c3ccc(C(F)(F)F)cc3)cnc2c1N | > 125 | > 125 |  |  | 
COC(=O)c1sc2cc(C#Cc3ccsc3)cnc2c1N | 30.7 | 30 |  |  | 
COC(=O)c1sc2cc(-c3ccoc3)cnc2c1N | > 125 | > 125 |  |  | 
